Patent publication US11077090B2, “Compounds and compositions and uses thereof” (Sunovion Pharmaceuticals Inc., priority 2016, dated 2021)

The compounds below were run on compound-treated mice (assay: Neuropharmacological assay (SmartCube): behavioral activity signature and minimal effective dose). Details: Mus musculus, ip, MED = dose having 50% or more total activity, read-out: Potency: minimal effective dose (MED).
Type: in vivo
Procedure, shortened: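 Video-recorded behavior is compared algorithmically against a reference-compound database, yielding class probabilities (best dose reported). Compounds given i.p. in NMP/PEG/propylene glycol 15 min pre-test at 3 doses; potency as MED, the dose (mpk, range usually 0.3–30) reaching ≥50% total activity.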
In the case of `Cc1cccc2c1CO[C@H](C)[C@H]2N.Cl` [Example 98], the minimal effective dose is reported as 3 to 10 mg/kg.
Compound `CC1(C)OCc2ccccc2C1N.Cl` (stereo not drawn) [Example 101, 3,3-Dimethylisochroman-4-amine hydrochloride] has a minimal effective dose of 10 to 30 mg/kg.
`Cc1ccc2c(c1)[C@H](N)CO[C@@H]2C.Cl` [Example 106] gave a minimal effective dose of 3 to 10 mg/kg.
Compound `Cc1ccc2c(c1)[C@H](N)CO[C@H]2C.Cl` [Example 107] has a minimal effective dose of 3 to 10 mg/kg.
`N[C@@H]1COCc2cccc(Cl)c21` [Example 127] was tested, and the minimal effective dose was < 3 mg/kg.
`N[C@H]1COCc2cccc(Cl)c21` [Example 128] was tested, and the minimal effective dose was < 3 mg/kg.
For `N[C@@H]1COCc2c(Cl)cccc21` [Example 131], the minimal effective dose was < 3 mg/kg.
`N[C@H]1COCc2c(Cl)cccc21` [Example 132] was tested, and the minimal effective dose was < 3 mg/kg.
`Cc1ccc2c(c1C)[C@H](N)COC2` [Example 135] was tested, and the minimal effective dose was < 3 mg/kg.
With `Cc1ccc2c(c1C)[C@@H](N)COC2` [Example 136] the minimal effective dose was 3 to 10 mg/kg.
`CN[C@@H]1COCc2ccc(OC)cc21` [Example 139] was tested, and the minimal effective dose was 3 to 10 mg/kg.
With `CN[C@H]1COCc2ccc(OC)cc21` [Example 140] the minimal effective dose was 10 to 30 mg/kg.
In the case of `CN[C@@H]1COCc2ccc(C)cc21` [Example 141], the minimal effective dose is reported as 3 to 10 mg/kg.
For `CN[C@H]1COCc2ccc(C)cc21` [Example 142], the minimal effective dose was 3 to 10 mg/kg.
In the case of `CN[C@@H]1COCc2ccc(C)c(C)c21` [Example 143], the minimal effective dose is reported as 3 to 10 mg/kg.

Same assay, conditions: i.p. 15 min before test, most efficacious dose(s)
`Cc1cccc2c1CO[C@H](C)[C@H]2N.Cl` [Example 98] was tested, and the “AD: ADHD (probability of activity signature)” value (“AD: ADHD” below) was “+ (LOQ ≤ + <5%)”, the “AG: analgesic (probability of activity signature)” value (“AG: analgesic” below) was “++ (5% ≤ ++ <25%)” and the “AX: anxiolytic (probability of activity signature)” value (“AX: anxiolytic” for short) was “++ (5% ≤ ++ <25%)”. The “CE: cognitive enhancer (probability of activity signature)” value (shortened to “CE: cognitive enhancer”) was “++ (5% ≤ ++ <25%)”, the “DP: anti-depressant (probability of activity signature)” value (“DP: anti-depressant” below) was “++ (5% ≤ ++ <25%)” and the “MS: mood stabilizer (probability of activity signature)” value (shortened to “MS: mood stabilizer”) was “+ (LOQ ≤ + <5%)”. For the same compound, the “PS: anti-psychotic (probability of activity signature)” value (“PS: anti-psychotic” for short) was “++ (5% ≤ ++ <25%)”, the “SD: sedative hypnotic (probability of activity signature)” value (shortened to “SD: sedative hypnotic”) was “++ (5% ≤ ++ <25%)” and the “UN: uncharacterized CNS activity (probability of activity signature)” value (shortened to “UN: uncharacterized CNS activity”) was “++++ (50% ≤ ++++)”.
For `CC1(C)OCc2ccccc2C1N.Cl` (stereo not drawn) [Example 101, 3,3-Dimethylisochroman-4-amine hydrochloride], the “AD: ADHD” value was “+ (LOQ ≤ + <5%)”, the “AG: analgesic” value was “++ (5% ≤ ++ <25%)” and the “AX: anxiolytic” value was “+++ (25% ≤ +++ <50%)”. For the same compound, the “CE: cognitive enhancer” value was “+ (LOQ ≤ + <5%)”, the “DP: anti-depressant” value was “++ (5% ≤ ++ <25%)” and the “MS: mood stabilizer” value was “+ (LOQ ≤ + <5%)”. The “PS: anti-psychotic” value was “++ (5% ≤ ++ <25%)”, the “SD: sedative hypnotic” value was “++ (5% ≤ ++ <25%)” and the “UN: uncharacterized CNS activity” value was “+ (LOQ ≤ + <5%)”.
`Cc1ccc2c(c1)[C@H](N)CO[C@@H]2C.Cl` [Example 106] was tested, and the “AD: ADHD” value was “+ (LOQ ≤ + <5%)”, the “AG: analgesic” value was “+ (LOQ ≤ + <5%)” and the “AX: anxiolytic” value was “++ (5% ≤ ++ <25%)”. For the same compound, the “CE: cognitive enhancer” value was “++ (5% ≤ ++ <25%)”, the “DP: anti-depressant” value was “+ (LOQ ≤ + <5%)” and the “MS: mood stabilizer” value was “+ (LOQ ≤ + <5%)”. For the same compound, the “PS: anti-psychotic” value was “++ (5% ≤ ++ <25%)”, the “SD: sedative hypnotic” value was “++ (5% ≤ ++ <25%)” and the “UN: uncharacterized CNS activity” value was “++++ (50% ≤ ++++)”.
For `Cc1ccc2c(c1)[C@H](N)CO[C@H]2C.Cl` [Example 107], the “AD: ADHD” value was “+ (LOQ ≤ + <5%)”, the “AG: analgesic” value was “++ (5% ≤ ++ <25%)” and the “AX: anxiolytic” value was “++ (5% ≤ ++ <25%)”. For the same compound, the “CE: cognitive enhancer” value was “++ (5% ≤ ++ <25%)”, the “DP: anti-depressant” value was “+ (LOQ ≤ + <5%)” and the “MS: mood stabilizer” value was “+ (LOQ ≤ + <5%)”. For the same compound, the “PS: anti-psychotic” value was “++ (5% ≤ ++ <25%)”, the “SD: sedative hypnotic” value was “+ (LOQ ≤ + <5%)” and the “UN: uncharacterized CNS activity” value was “+++ (25% ≤ +++ <50%)”.
With `N[C@@H]1COCc2cccc(Cl)c21` [Example 127] the “AD: ADHD” value was “+ (LOQ ≤ + <5%)”, the “AG: analgesic” value was “++ (5% ≤ ++ <25%)” and the “AX: anxiolytic” value was “++ (5% ≤ ++ <25%)”. The “CE: cognitive enhancer” value was “++ (5% ≤ ++ <25%)”, the “DP: anti-depressant” value was “++ (5% ≤ ++ <25%)” and the “MS: mood stabilizer” value was “+ (LOQ ≤ + <5%)”. The “PS: anti-psychotic” value was “++ (5% ≤ ++ <25%)”, the “SD: sedative hypnotic” value was “+ (LOQ ≤ + <5%)” and the “UN: uncharacterized CNS activity” value was “+++ (25% ≤ +++ <50%)”.
In the case of `N[C@H]1COCc2cccc(Cl)c21` [Example 128], the “AD: ADHD” value is reported as “+ (LOQ ≤ + <5%)”, the “AG: analgesic” value is reported as “++ (5% ≤ ++ <25%)” and the “AX: anxiolytic” value is reported as “++ (5% ≤ ++ <25%)”. For the same compound, the “CE: cognitive enhancer” value was “+++ (25% ≤ +++ <50%)”, the “DP: anti-depressant” value was “++ (5% ≤ ++ <25%)” and the “MS: mood stabilizer” value was “+ (LOQ ≤ + <5%)”. For the same compound, the “PS: anti-psychotic” value was “++ (5% ≤ ++ <25%)”, the “SD: sedative hypnotic” value was “+ (LOQ ≤ + <5%)” and the “UN: uncharacterized CNS activity” value was “+++ (25% ≤ +++ <50%)”.
`N[C@@H]1COCc2c(Cl)cccc21` [Example 131] was tested, and the “AD: ADHD” value was “+ (LOQ ≤ + <5%)”, the “AG: analgesic” value was “+ (LOQ ≤ + <5%)” and the “AX: anxiolytic” value was “++ (5% ≤ ++ <25%)”. For the same compound, the “CE: cognitive enhancer” value was “+++ (25% ≤ +++ <50%)”, the “DP: anti-depressant” value was “++ (5% ≤ ++ <25%)” and the “MS: mood stabilizer” value was “++ (5% ≤ ++ <25%)”. The “PS: anti-psychotic” value was “++ (5% ≤ ++ <25%)”, the “SD: sedative hypnotic” value was “++ (5% ≤ ++ <25%)” and the “UN: uncharacterized CNS activity” value was “+++ (25% ≤ +++ <50%)”.
In the case of `N[C@H]1COCc2c(Cl)cccc21` [Example 132], the “AD: ADHD” value is reported as “+ (LOQ ≤ + <5%)”, the “AG: analgesic” value is reported as “++ (5% ≤ ++ <25%)” and the “AX: anxiolytic” value is reported as “+++ (25% ≤ +++ <50%)”. The “CE: cognitive enhancer” value was “+++ (25% ≤ +++ <50%)”, the “DP: anti-depressant” value was “++ (5% ≤ ++ <25%)” and the “MS: mood stabilizer” value was “+ (LOQ ≤ + <5%)”. The “PS: anti-psychotic” value was “++ (5% ≤ ++ <25%)”, the “SD: sedative hypnotic” value was “++ (5% ≤ ++ <25%)” and the “UN: uncharacterized CNS activity” value was “+++ (25% ≤ +++ <50%)”.
With `Cc1ccc2c(c1C)[C@H](N)COC2` [Example 135] the “AD: ADHD” value was “+ (LOQ ≤ + <5%)”, the “AG: analgesic” value was “++ (5% ≤ ++ <25%)” and the “AX: anxiolytic” value was “+++ (25% ≤ +++ <50%)”. The “CE: cognitive enhancer” value was “++ (5% ≤ ++ <25%)”, the “DP: anti-depressant” value was “++ (5% ≤ ++ <25%)” and the “MS: mood stabilizer” value was “+ (LOQ ≤ + <5%)”. The “PS: anti-psychotic” value was “++ (5% ≤ ++ <25%)”, the “SD: sedative hypnotic” value was “++ (5% ≤ ++ <25%)” and the “UN: uncharacterized CNS activity” value was “+++ (25% ≤ +++ <50%)”.
With `Cc1ccc2c(c1C)[C@@H](N)COC2` [Example 136] the “AD: ADHD” value was “+ (LOQ ≤ + <5%)”, the “AG: analgesic” value was “++ (5% ≤ ++ <25%)” and the “AX: anxiolytic” value was “++ (5% ≤ ++ <25%)”. For the same compound, the “CE: cognitive enhancer” value was “++ (5% ≤ ++ <25%)”, the “DP: anti-depressant” value was “++ (5% ≤ ++ <25%)” and the “MS: mood stabilizer” value was “+ (LOQ ≤ + <5%)”. The “PS: anti-psychotic” value was “++ (5% ≤ ++ <25%)”, the “SD: sedative hypnotic” value was “+ (LOQ ≤ + <5%)” and the “UN: uncharacterized CNS activity” value was “+++ (25% ≤ +++ <50%)”.
`CN[C@@H]1COCc2ccc(OC)cc21` [Example 139] was tested, and the “AD: ADHD” value was “+ (LOQ ≤ + <5%)”, the “AG: analgesic” value was “++ (5% ≤ ++ <25%)” and the “AX: anxiolytic” value was “++ (5% ≤ ++ <25%)”. The “CE: cognitive enhancer” value was “++ (5% ≤ ++ <25%)”, the “DP: anti-depressant” value was “++ (5% ≤ ++ <25%)” and the “MS: mood stabilizer” value was “+ (LOQ ≤ + <5%)”. For the same compound, the “PS: anti-psychotic” value was “++ (5% ≤ ++ <25%)”, the “SD: sedative hypnotic” value was “+ (LOQ ≤ + <5%)” and the “UN: uncharacterized CNS activity” value was “+++ (25% ≤ +++ <50%)”.
With `CN[C@H]1COCc2ccc(OC)cc21` [Example 140] the “AD: ADHD” value was “+ (LOQ ≤ + <5%)”, the “AG: analgesic” value was “++ (5% ≤ ++ <25%)” and the “AX: anxiolytic” value was “++ (5% ≤ ++ <25%)”. For the same compound, the “CE: cognitive enhancer” value was “++ (5% ≤ ++ <25%)”, the “DP: anti-depressant” value was “++ (5% ≤ ++ <25%)” and the “MS: mood stabilizer” value was “++ (5% ≤ ++ <25%)”. For the same compound, the “PS: anti-psychotic” value was “+++ (25% ≤ +++ <50%)”, the “SD: sedative hypnotic” value was “+ (LOQ ≤ + <5%)” and the “UN: uncharacterized CNS activity” value was “+ (LOQ ≤ + <5%)”.
In the case of `CN[C@@H]1COCc2ccc(C)cc21` [Example 141], the “AD: ADHD” value is reported as “+ (LOQ ≤ + <5%)”, the “AG: analgesic” value is reported as “++ (5% ≤ ++ <25%)” and the “AX: anxiolytic” value is reported as “+++ (25% ≤ +++ <50%)”. For the same compound, the “CE: cognitive enhancer” value was “++ (5% ≤ ++ <25%)”, the “DP: anti-depressant” value was “++ (5% ≤ ++ <25%)” and the “MS: mood stabilizer” value was “++ (5% ≤ ++ <25%)”. For the same compound, the “PS: anti-psychotic” value was “++ (5% ≤ ++ <25%)”, the “SD: sedative hypnotic” value was “+ (LOQ ≤ + <5%)” and the “UN: uncharacterized CNS activity” value was “+++ (25% ≤ +++ <50%)”.
`CN[C@H]1COCc2ccc(C)cc21` [Example 142] was tested, and the “AD: ADHD” value was “+ (LOQ ≤ + <5%)”, the “AG: analgesic” value was “++ (5% ≤ ++ <25%)” and the “AX: anxiolytic” value was “++ (5% ≤ ++ <25%)”. For the same compound, the “CE: cognitive enhancer” value was “++ (5% ≤ ++ <25%)”, the “DP: anti-depressant” value was “++ (5% ≤ ++ <25%)” and the “MS: mood stabilizer” value was “+ (LOQ ≤ + <5%)”. For the same compound, the “PS: anti-psychotic” value was “+ (LOQ ≤ + <5%)”, the “SD: sedative hypnotic” value was “+ (LOQ ≤ + <5%)” and the “UN: uncharacterized CNS activity” value was “++++ (50% ≤ ++++)”.
With `CN[C@@H]1COCc2ccc(C)c(C)c21` [Example 143] the “AD: ADHD” value was “+ (LOQ ≤ + <5%)”, the “AG: analgesic” value was “+++ (25% ≤ +++ <50%)” and the “AX: anxiolytic” value was “++ (5% ≤ ++ <25%)”. For the same compound, the “CE: cognitive enhancer” value was “++ (5% ≤ ++ <25%)”, the “DP: anti-depressant” value was “++ (5% ≤ ++ <25%)” and the “MS: mood stabilizer” value was “+ (LOQ ≤ + <5%)”. For the same compound, the “PS: anti-psychotic” value was “+ (LOQ ≤ + <5%)”, the “SD: sedative hypnotic” value was “++ (5% ≤ ++ <25%)” and the “UN: uncharacterized CNS activity” value was “++ (5% ≤ ++ <25%)”.
